These results are taken from article PMC7415619 (European journal of medicinal chemistry, 2020).

One data set deals with Mtb H37Rv. The experiment in a line: Minimum inhibitory concentration, broth microdilution, whole-cell activity. The data set is classed as cell-based, Mycobacterium tuberculosis. The note with it: for MIC GAST: Mtb H37Rv, GAST medium, MIC = >99% inhibition of cell growth; for MIC: Mycobacterium tuberculosis, H37RV. (In broth dilution the organism is exposed to a series of concentrations in liquid medium.)

Data set [1] concerns MDR-TB and XDR-TB strains. Briefly: microbe, parasite or virus in culture. The data set is classed as cell-based. The note with it: Mycobacterium tuberculosis.
The next data set relates to Mtb. As to conditions: cited from earlier work.
In the next data set the target is FACL19 (Mycobacterium tuberculosis, UniProt P9WQ51). The experiment in a line: Coupled continuous enzyme kinetic assay. The data set is classed as biochemical. As to conditions: for Ki^app FACL19: apparent Ki, Morrison equation, 250 μM dodecanoic acid.
FACL19, sequence (P9WQ51 whole entry): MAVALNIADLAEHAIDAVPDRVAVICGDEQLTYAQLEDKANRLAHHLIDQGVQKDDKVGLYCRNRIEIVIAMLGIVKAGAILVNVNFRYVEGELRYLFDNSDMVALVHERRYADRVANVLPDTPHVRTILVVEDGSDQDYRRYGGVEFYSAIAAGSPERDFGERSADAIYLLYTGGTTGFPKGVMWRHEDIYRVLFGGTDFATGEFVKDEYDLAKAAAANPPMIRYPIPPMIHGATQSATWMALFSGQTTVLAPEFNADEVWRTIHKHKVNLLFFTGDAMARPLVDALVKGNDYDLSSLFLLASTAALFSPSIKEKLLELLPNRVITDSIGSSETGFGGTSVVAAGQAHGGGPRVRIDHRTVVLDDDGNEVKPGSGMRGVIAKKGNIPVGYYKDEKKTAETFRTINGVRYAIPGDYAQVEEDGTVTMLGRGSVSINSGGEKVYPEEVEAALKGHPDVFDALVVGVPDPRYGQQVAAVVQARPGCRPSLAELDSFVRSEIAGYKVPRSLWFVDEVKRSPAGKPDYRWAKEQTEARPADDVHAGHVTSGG
Another data set has as its system Vero cells. Briefly: Cytotoxicity, MTT assay. The note with it: read-out: Cytotox IC50, Vero monkey cells, 72 h.
The target in a further data set is FAAL28 (Mycobacterium tuberculosis, UniProt P9WQ59). The experiment in a line: Coupled continuous enzyme kinetic assay. As to conditions: for Ki^app FAAL28: apparent Ki, Morrison equation, 33 μM tetradecanoic acid. The data set is classed as biochemical.
FAAL28, sequence (P9WQ59 whole entry): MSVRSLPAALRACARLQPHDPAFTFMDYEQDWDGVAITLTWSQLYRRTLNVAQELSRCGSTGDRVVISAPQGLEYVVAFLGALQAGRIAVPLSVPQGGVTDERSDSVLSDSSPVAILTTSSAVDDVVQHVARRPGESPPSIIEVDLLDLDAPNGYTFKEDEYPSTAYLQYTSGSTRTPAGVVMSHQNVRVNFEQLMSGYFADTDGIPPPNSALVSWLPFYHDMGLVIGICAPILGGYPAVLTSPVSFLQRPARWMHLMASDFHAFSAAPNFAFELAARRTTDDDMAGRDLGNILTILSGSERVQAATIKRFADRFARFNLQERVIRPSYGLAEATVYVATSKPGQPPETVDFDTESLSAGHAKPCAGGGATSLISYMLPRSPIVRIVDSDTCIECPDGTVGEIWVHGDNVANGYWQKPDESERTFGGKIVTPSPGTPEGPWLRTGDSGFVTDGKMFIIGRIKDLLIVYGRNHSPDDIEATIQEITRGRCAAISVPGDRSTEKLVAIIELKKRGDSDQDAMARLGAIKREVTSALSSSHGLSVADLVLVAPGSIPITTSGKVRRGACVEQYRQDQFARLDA
[2] abbreviates: read-out: MICs against MDR and XDR Mtb panel in 7H9 medium.
Setting [3] is: read-out: MICs against MDR-TB and XDR-TB panel in both media.
Where [4] appears, read: read-out: MIC 7H9, Mtb H37Rv, 7H9 medium.
[5] abbreviates: read-out: MIC 7H9/palmitate, Mtb H37Rv, 7H9/palmitate medium.

What is called Ki is a measure of affinity in units of concentration, obtained from inhibition or displacement. What is called IC50 is the concentration that inhibits the measured activity by half.

Converted amounts (≈) assume the structure as drawn. Like-named read-outs stand apart in the source and are kept apart here.

Turning to `CCCCCCCCCCCC(=O)NS(=O)(=O)OC[C@H]1O[C@@H](n2cnc3c(N)ncnc32)[C@H](O)[C@@H]1O` [Compound 9, 5′-O-[N-(Dodecanoyl)sulfamoyl]adenosine], the “MIC GAST” value against Mtb H37Rv lay in the range of 0.19 to 0.39 µM. Also, the MIC in data set [1] (setting [2]) was 3.13 to 12.5 µM (≈ 1.65 to 6.61 µg/mL). Further, the “MIC against Mtb” value with Mtb is 100 µM (≈ 52.9 µg/mL).
As for `C[C@H](CCC(=O)NS(=O)(=O)OC[C@H]1O[C@@H](n2cnc3c(N)ncnc32)[C@H](O)[C@@H]1O)[C@H]1CC[C@H]2[C@@H]3CC[C@@H]4C[C@H](O)CC[C@]4(C)[C@H]3CC[C@]12C` [Compound 11, reference compound], the “MIC against Mtb” value in the data set with Mtb was 50 µM (≈ 35.2 µg/mL).
As for `CCCCCCCCCCCCCC(=O)NS(=O)(=O)OC[C@H]1O[C@@H](n2cnc3c(N)ncnc32)[C@H](O)[C@@H]1O` [Compound 17, 5′-O-[N-(Tetradecanoyl)sulfamoyl]adenosine], the MIC in data set [1] (setting [2]) lay in the range of 3.13 to 12.5 µM (≈ 1.74 to 6.96 µg/mL).
`CCCCCCCCCCCCCCCC(=O)NS(=O)(=O)OC[C@H]1O[C@@H](n2cnc3c(N)ncnc32)[C@H](O)[C@@H]1O` [Compound 18, 5′-O-[N-(Palmitoyl)sulfamoyl]adenosine]: on FACL19, the Ki amounted to 3.2 µM.
`CCCCCCCCCCCCCCCCCCCC(=O)NS(=O)(=O)OC[C@H]1O[C@@H](n2cnc3c(N)ncnc32)[C@H](O)[C@@H]1O` [Compound 20, 5′-O-[N-(Icosanoyl)sulfamoyl]adenosine]: the IC50 with Vero cells is 0.1 µM.
`CCCCCCCCC/C=C/C(=O)NS(=O)(=O)OC[C@H]1O[C@@H](n2cnc3c(N)ncnc32)[C@H](O)[C@@H]1O` [Compound 23, 5′-O-{N-[(E)-Dodec-2-enoyl]sulfamoyl}adenosine]: in data set [1] (setting [3]), the MIC lay in the range of 3.13 to 12.5 µM (≈ 1.65 to 6.58 µg/mL).
On to `CCCCC/C=C\CCCC(=O)NS(=O)(=O)OC[C@H]1O[C@@H](n2cnc3c(N)ncnc32)[C@H](O)[C@@H]1O` [Compound 25, 5′-O-{N-[(Z)-Undec-5-enoyl]sulfamoyl}adenosine], for which the MIC in the data set with Mtb H37Rv (setting [4]) and with Mtb H37Rv (setting [5]) was 100 µM (≈ 51.3 µg/mL) each time. The Ki at FACL19 and at FAAL28 was above 100 µM in each case.
For the molecule `CCCCCCCCC[C@@H]1C[C@@H]1C(=O)NS(=O)(=O)OC[C@H]1O[C@@H](n2cnc3c(N)ncnc32)[C@H](O)[C@@H]1O` [Compound 26, 5′-O-{N-[(1S,2R)-2-Nonylcyclopropanecarbonyl]sulfamoyl} adenosine], the “Ki^app FAAL28” value at FAAL28 is “weak inhibition”.
Take `[N-]=[N+]=NCCCCCCCCCCCC(=O)NS(=O)(=O)OC[C@H]1O[C@@H](n2cnc3c(N)ncnc32)[C@H](O)[C@@H]1O` [Compound 28, 5′-O-[N-(12-Azidododecanoyl)sulfamoyl]adenosine]: the “MIC GAST” value in the data set on Mtb H37Rv was 0.098 to 3.13 µM. For the same molecule, the MIC in the data set with Mtb H37Rv (setting [4]) fell in the range of 12.5 to 25 µM (≈ 7.12 to 14.2 µg/mL).
As to `NCCCCCCCCCCCC(=O)NS(=O)(=O)OC[C@H]1O[C@@H](n2cnc3c(N)ncnc32)[C@H](O)[C@@H]1O` [Compound 29, 5′-O-[N-(12-Aminododecanoyl)sulfamoyl]adenosine], in the data set with Mtb H37Rv (setting [5]), the MIC fell in the range of 12.5 to 25 µM (≈ 6.8 to 13.6 µg/mL).
On to `COC(=O)CCCCCCCCCCC(=O)NS(=O)(=O)OC[C@H]1O[C@@H](n2cnc3c(N)ncnc32)[C@H](O)[C@@H]1O` [Compound 30, 5′-O-[N-(12-Methoxy-12-oxododecanoyl)sulfamoyl]adenosine], for which the “MIC GAST” value with Mtb H37Rv came out at 3.13 µM (≈ 1.79 µg/mL). Further, the values for the MIC in the data set on Mtb H37Rv (setting [4]) and in the data set with Mtb H37Rv (setting [5]) were 100 µM (≈ 57.3 µg/mL) and above 100 µM, respectively. Besides, the Ki at FACL19 and at FAAL28 was above 100 µM throughout.
Turning to `Nc1ncnc2c1ncn2[C@@H]1O[C@H](COS(=O)(=O)NC(=O)CCCCCCCCCCC(=O)O)[C@@H](O)[C@H]1O` [Compound 31, 5′-O-[N-(11-Carboxyundecanoyl)sulfamoyl]adenosine], the MIC in the data set with Mtb H37Rv (setting [4]) and with Mtb H37Rv (setting [5]) was above 100 µM throughout. Further, the Ki at FACL19 and on FAAL28 was above 100 µM throughout.
On to `Nc1ncnc2c1ncn2[C@@H]1O[C@H](COS(=O)(=O)NC(=O)CCCCCCCCCCOc2ccccc2)[C@@H](O)[C@H]1O` [Compound 32, 5′-O-[N-(11-Phenoxyundecanoyl)sulfamoyl]adenosine], for which, on FACL19, the “Ki^app FACL19” value is “completely inactive”. For the same molecule, at FAAL28 (ratio of apparent Ki values), the “selectivity for FAAL28 over FACL19” value is on record as “greater than 142 fold”. For the same molecule, the MIC in data set [1] (setting [3]) fell in the range of 3.13 to 12.5 µM (≈ 1.9 to 7.58 µg/mL).
Turning to `CCCCCCCCCC[C@@H](C)C(=O)NS(=O)(=O)OC[C@H]1O[C@@H](n2cnc3c(N)ncnc32)[C@H](O)[C@@H]1O` [Compound 33, 5′-O-{N-[(R)-2-Methyldodecanoyl]sulfamoyl}adenosine], the MIC in the data set with Mtb H37Rv (setting [4]) and with Mtb H37Rv (setting [5]) was above 100 µM in each case. In addition, the inhibition constant (Ki) on FACL19 and at FAAL28 was above 100 µM in each case.
For the molecule `CCCCCCCCCC[C@H](C)C(=O)NS(=O)(=O)OC[C@H]1O[C@@H](n2cnc3c(N)ncnc32)[C@H](O)[C@@H]1O` [Compound 34, 5′-O-{N-[(S)-2-Methylodecanoyl]sulfamoyl}adenosine], the MIC in the data set on Mtb H37Rv (setting [4]) and with Mtb H37Rv (setting [5]) was above 100 µM in each case. Also, the Ki at FACL19 and at FAAL28 was above 100 µM in each case.
`CCCCCCCCCCC(C)(C)C(=O)NS(=O)(=O)OC[C@H]1O[C@@H](n2cnc3c(N)ncnc32)[C@H](O)[C@@H]1O` [Compound 35, 5′-O-[N-(2,2-Dimethyldodecanoyl)sulfamoyl]adenosine]: the MIC in the data set with Mtb H37Rv (setting [4]) and with Mtb H37Rv (setting [5]) was above 100 µM each time. Further, the Ki was 54.7 µM on FACL19 and above 100 µM on FAAL28.
For `CCCCCCCCCOCC(=O)NS(=O)(=O)OC[C@H]1O[C@@H](n2cnc3c(N)ncnc32)[C@H](O)[C@@H]1O` [Compound 36, 5′-O-[N-2-(Nonyloxy)acetylsulfamoyl]adenosine], in the data set on Mtb H37Rv, the “MIC GAST” value lay within 0.098 to 0.19 µM. The MIC in the data set with Mtb H37Rv (setting [5]) was 25 to 50 µM (≈ 13.3 to 26.5 µg/mL).
Consider `Nc1ncnc2c1ncn2[C@@H]1O[C@H](COS(=O)(=O)NC(=O)CCCCCCCCCOc2ccccc2)[C@@H](O)[C@H]1O` [Compound 38, 5′-O-[N-(10-Phenoxydecanoyl)sulfamoyl]adenosine], for which, at FAAL28, the “fold decrease in potency for FAAL28 relative to 32” value came to 10 fold.
For `Nc1ncnc2c1ncn2[C@@H]1O[C@H](CNS(=O)(=O)NC(=O)CCCCCCCCCCOc2ccccc2)[C@@H](O)[C@H]1O` [Compound 83, 5′-deoxy-5′-{N-[(11-Phenoxyundecanoyl)sulfamoyl]amino} adenosine], the “Ki^app FACL19” value at FACL19 was “no inhibition”. The “fold decrease in potency for FAAL28 relative to 32” value on FAAL28 was determined as 4 fold.
Turning to `Nc1ncnc2c1ncn2[C@@H]1O[C@H](COS(=O)(=O)NCCCCCCCCCCCOc2ccccc2)[C@@H](O)[C@H]1O` [Compound 89, 5′-O-[N-(11-Phenoxyundecyl)sulfamoyl]adenosine], on FAAL28, the “Ki^app FAAL28” value is given as “ablated biochemical inhibition”.
As to `Nc1ncnc2c1ncn2[C@@H]1O[C@H](CNS(=O)(=O)OCCCCCCCCCCCOc2ccccc2)[C@@H](O)[C@H]1O` [Compound 93, 5′-Deoxy-5′-{[(11-phenoxyundecyloxy)sulfonyl]amino}adenosine], the “Ki^app FAAL28” value at FAAL28 is “ablated biochemical inhibition”.
